Data taken from patent US11207325B2, “Triazolopyrimidine compounds and uses thereof” (Novartis AG, priority 2014, dated 2021).

System: H3K27 methylation in G401 cell
Experiment: ELISA (H3K27 methylation) assay
Type: cell-based
Settings: Homo sapiens, G-401; ELISA Qualified assay (H3K27 methylation); read-out: (c) IC50 (μM), ELISA Qualified
Text: ELISA (H3K27 Methylation) Assay

SMILES: COCc1ncc(-c2cnc(NCc3cccc4c3CCO4)n3cnnc23)cc1C [Example 83, N-((2,3-dihydrobenzofuran-4-yl)methyl)-8-(6-(methoxymethyl)-5-methylpyridin-3-yl)-[1,2,4]triazolo[4,3-c]pyrimidin-5-amine]
- IC50: 0.14 µM

SMILES: CS(=O)(=O)c1ccc(-c2cnc(NCc3cccc4c3CCO4)n3cnnc23)c(F)c1 [Example 26, N-((2,3-dihydrobenzofuran-4-yl)methyl)-8-(2-fluoro-4-(methylsulfonyl)phenyl)-[1,2,4]triazolo[4,3-c]pyrimidin-5-amine]
- IC50: 0.0448 µM

SMILES: Fc1ccc2c(c1CNc1ncc(-c3ccc(N4CCOCC4)nc3)c3nncn13)CCO2 [Example 92, N-((5-fluoro-2,3-dihydrobenzofuran-4-yl)methyl)-8-(6-morpholinopyridin-3-yl)-[1,2,4]triazolo[4,3-c]pyrimidin-5-amine]
- IC50: 0.0409 µM

SMILES: CN(C)Cc1ccc(-c2cnc(NCc3c(F)ccc4occc34)n3cnnc23)cc1 [Example 219, 8-(4-((dimethylamino)methyl)phenyl)-N-((5-fluorobenzofuran-4-yl)methyl)-[1,2,4]triazolo[4,3-c]pyrimidin-5-amine]
- IC50: 0.0079 µM

SMILES: Fc1ccc2c(c1CNc1ncc(-c3cccnc3C(F)F)c3nncn13)CCO2 [Example 168, 8-(2-(difluoromethyl)pyridin-3-yl)-N-((5-fluoro-2,3-dihydrobenzofuran-4-yl)methyl)-[1,2,4]triazolo[4,3-c]pyrimidin-5-amine]
- IC50: 0.002 µM

SMILES: Cc1nn(C[C@H](C)O)c(C)c1-c1cnc(NCc2c(F)ccc3c2CCO3)n2cnnc12 [Example 187, (2S)-1-(4-(5-(((5-fluoro-2,3-dihydrobenzofuran-4-yl)methyl)amino)-[1,2,4]triazolo[4,3-c]pyrimidin-8-yl)-3,5-dimethyl-1H-pyrazol-1-yl)propan-2-ol]
- IC50: 0.012 µM

SMILES: Cn1nccc1-c1cnc(NCc2c(F)ccc3c2CCO3)n2cnnc12 [Example 169, N-((5-fluoro-2,3-dihydrobenzofuran-4-yl)methyl)-8-(1-methyl-1H-pyrazol-5-yl)-[1,2,4]triazolo[4,3-c]pyrimidin-5-amine]
- IC50: 0.0029 µM

SMILES: Clc1ccncc1-c1cnc(NCc2cccc3c2CCO3)n2cnnc12 [Example 50, 8-(4-chloropyridin-3-yl)-N-((2,3-dihydrobenzofuran-4-yl)methyl)-[1,2,4]triazolo[4,3-c]pyrimidin-5-amine]
- IC50: 0.12 µM

SMILES: COC(=O)N1CCN(c2ccc(-c3cnc(NCc4cccc5c4CCO5)n4cnnc34)cn2)CC1 [Example 97, methyl 4-(5-(5-(((2,3-dihydrobenzofuran-4-yl)methyl)amino)-[1,2,4]triazolo[4,3-c]pyrimidin-8-yl)pyridin-2-yl)piperazine-1-carboxylate]
- IC50: 0.183 µM

SMILES: Fc1ccc2c(c1CNc1ncc(-c3cncnc3)c3nncn13)CCO2 [Example 206, N-((5-fluoro-2,3-dihydrobenzofuran-4-yl)methyl)-8-(pyrimidin-5-yl)-[1,2,4]triazolo[4,3-c]pyrimidin-5-amine]
- IC50: 0.0159 µM

SMILES: Cc1ncccc1-c1cnc(NCc2cccc3c2CCO3)n2cnnc12 [Example 123, N-((2,3-dihydrobenzofuran-4-yl)methyl)-8-(2-methylpyridin-3-yl)-[1,2,4]triazolo[4,3-c]pyrimidin-5-amine]
- IC50: 0.0197 µM

SMILES: FC1(F)CCN(CCc2ccc(-c3cnc(NCc4cccc5c4CCO5)n4cnnc34)cn2)C1 [Example 100, 8-(6-(2-(3,3-difluoropyrrolidin-1-yl)ethyl)pyridin-3-yl)-N-((2,3-dihydrobenzofuran-4-yl)methyl)-[1,2,4]triazolo[4,3-c]pyrimidin-5-amine]
- IC50: 0.181 µM

SMILES: Cc1cc(-c2cnc(NCc3cccc4c3CCO4)n3cnnc23)cnc1N1CCNC(=O)C1 [Example 105, 4-(5-(5-(((2,3-dihydrobenzofuran-4-yl)methyl)amino)-[1,2,4]triazolo[4,3-c]pyrimidin-8-yl)-3-methylpyridin-2-yl)piperazin-2-one]
- IC50: 2.42 µM

SMILES: Fc1ccc2c(c1CNc1ncc(-c3cccnc3F)c3nncn13)CCO2 [Example 115, N-((5-fluoro-2,3-dihydrobenzofuran-4-yl)methyl)-8-(2-fluoropyridin-3-yl)-[1,2,4]triazolo[4,3-c]pyrimidin-5-amine]
- IC50: 0.0243 µM

SMILES: CC1(C)COC(c2ccc(-c3cnc(NCc4cccc5c4CCO5)n4cnnc34)cn2)=N1 [Example 101, N-((2,3-dihydrobenzofuran-4-yl)methyl)-8-(6-(4,4-dimethyl-4,5-dihydrooxazol-2-yl)pyridin-3-yl)-[1,2,4]triazolo[4,3-c]pyrimidin-5-amine]
- IC50: 0.761 µM

SMILES: O=C(c1ccc(-c2cnc(NCc3cccc4c3CCO4)n3cnnc23)cc1)N1CCNCC1 [Example 41, (4-(5-(((2,3-dihydrobenzofuran-4-yl)methyl)amino)-[1,2,4]triazolo[4,3-c]pyrimidin-8-yl)phenyl)(piperazin-1-yl)methanone]
- IC50: 0.375 µM

SMILES: Cc1c(-c2cnc(NCc3cccc4c3CCO4)n3cnnc23)cnn1C [Example 64, N-((2,3-dihydrobenzofuran-4-yl)methyl)-8-(1,5-dimethyl-1H-pyrazol-4-yl)-[1,2,4]triazolo[4,3-c]pyrimidin-5-amine]
- IC50: 0.0978 µM

SMILES: c1cc(CNc2ncc(-c3cncc(N4CCNCC4)c3)c3nncn23)c2c(c1)OCC2 [Example 77, N-((2,3-dihydrobenzofuran-4-yl)methyl)-8-(5-(piperazin-1-yl)pyridin-3-yl)-[1,2,4]triazolo[4,3-c]pyrimidin-5-amine]
- IC50: 0.581 µM

SMILES: Cc1ccc(-c2cnc(NCc3cccc4c3CCO4)n3cnnc23)cn1 [Example 52]
- IC50: 0.106 µM

SMILES: COc1ncccc1-c1cnc(NCc2c(F)ccc3c2CCO3)n2cnnc12 [Example 141, N-((5-fluoro-2,3-dihydrobenzofuran-4-yl)methyl)-8-(2-methoxypyridin-3-yl)-[1,2,4]triazolo[4,3-c]pyrimidin-5-amine]
- IC50: 0.0351 µM

SMILES: COCCc1ccc(-c2cnc(NCc3cccc4c3CCO4)n3cnnc23)cn1 [Example 86, N-((2,3-dihydrobenzofuran-4-yl)methyl)-8-(6-(2-methoxyethyl)pyridin-3-yl)-[1,2,4]triazolo[4,3-c]pyrimidin-5-amine]
- IC50: 0.0758 µM

SMILES: CN(C)c1cc(F)c(-c2cnc(NCc3cccc4c3CCO4)n3cnnc23)cn1 [Example 112, N-((2,3-dihydrobenzofuran-4-yl)methyl)-8-(6-(dimethylamino)-4-fluoropyridin-3-yl)-[1,2,4]triazolo[4,3-c]pyrimidin-5-amine]
- IC50: 0.389 µM

SMILES: Fc1ccc2c(c1CNc1ncc(-c3ccc(C4CC4)nc3)c3nncn13)CCO2 [Example 119, 8-(6-cyclopropylpyridin-3-yl)-N-((5-fluoro-2,3-dihydrobenzofuran-4-yl)methyl)-[1,2,4]triazolo[4,3-c]pyrimidin-5-amine]
- IC50: 0.0108 µM

SMILES: Cc1cc(OC(F)F)ncc1-c1cnc(NCc2c(F)ccc3c2CCO3)n2cnnc12 [Example 197, 8-(6-(difluoromethoxy)-4-methylpyridin-3-yl)-N-((5-fluoro-2,3-dihydrobenzofuran-4-yl)methyl)-[1,2,4]triazolo[4,3-c]pyrimidin-5-amine]
- IC50: 0.0149 µM

SMILES: CNc1cc(F)c(-c2cnc(NCc3cccc4c3CCO4)n3cnnc23)cn1 [Example 111, N-((2,3-dihydrobenzofuran-4-yl)methyl)-8-(4-fluoro-6-(methylamino)pyridin-3-yl)-[1,2,4]triazolo[4,3-c]pyrimidin-5-amine]
- IC50: 0.14 µM

SMILES: Cc1cc(-c2cnc(NCc3c(F)ccc4c3CCO4)n3cnnc23)c(C)cn1 [Example 194, 8-(2,5-dimethylpyridin-4-yl)-N-((5-fluoro-2,3-dihydrobenzofuran-4-yl)methyl)-[1,2,4]triazolo[4,3-c]pyrimidin-5-amine]
- IC50: 0.0241 µM

SMILES: Cc1ncn(-c2cnc(NCc3c(F)ccc4c3CCO4)n3cnnc23)n1 [Example 238, N-((5-fluoro-2,3-dihydrobenzofuran-4-yl)methyl)-8-(3-methyl-1H-1,2,4-triazol-1-yl)-[1,2,4]triazolo[4,3-c]pyrimidin-5-amine]
- IC50: 0.0179 µM

SMILES: O=C1CN(Cc2ccc(-c3cnc(NCc4cccc5c4CCO5)n4cnnc34)cn2)CCN1 [Example 133, 4-((5-(5-(((2,3-dihydrobenzofuran-4-yl)methyl)amino)-[1,2,4]triazolo[4,3-c]pyrimidin-8-yl)pyridin-2-yl)methyl)piperazin-2-one]
- IC50: 0.142 µM

SMILES: Nc1ccncc1-c1cnc(NCc2cccc3c2CCO3)n2cnnc12 [Example 76, 8-(4-aminopyridin-3-yl)-N-((2,3-dihydrobenzofuran-4-yl)methyl)-[1,2,4]triazolo[4,3-c]pyrimidin-5-amine]
- IC50: 0.32 µM

SMILES: Cc1nc(C(=O)N(C)C)ccc1-c1cnc(NCc2c(F)ccc3c2CCO3)n2cnnc12 [Example 199, 5-(5-(((5-fluoro-2,3-dihydrobenzofuran-4-yl)methyl)amino)-[1,2,4]triazolo[4,3-c]pyrimidin-8-yl)-N,N,6-trimethylpicolinamide]
- IC50: 0.005 µM

SMILES: CN(C)C(=O)CCc1ccc(-c2cnc(NCc3cccc4c3CCO4)n3cnnc23)cn1 [Example 135, 3-(5-(5-(((2,3-dihydrobenzofuran-4-yl)methyl)amino)-[1,2,4]triazolo[4,3-c]pyrimidin-8-yl)pyridin-2-yl)-N,N-dimethylpropanamide]
- IC50: 0.321 µM

SMILES: Cc1cc(S(C)(=O)=O)ncc1-c1cnc(NCc2c(F)ccc3c2CCO3)n2cnnc12 [Example 127, N-((5-fluoro-2,3-dihydrobenzofuran-4-yl)methyl)-8-(4-methyl-6-(methylsulfonyl)pyridin-3-yl)-[1,2,4]triazolo[4,3-c]pyrimidin-5-amine]
- IC50: 0.028 µM

SMILES: Cc1cc(C(=O)N2CCCC2)ncc1-c1cnc(NCc2c(F)ccc3c2CCO3)n2cnnc12 [Example 130, (5-(5-(((5-fluoro-2,3-dihydrobenzofuran-4-yl)methyl)amino)-[1,2,4]triazolo[4,3-c]pyrimidin-8-yl)-4-methylpyridin-2-yl)(pyrrolidin-l-yl)methanone]
- IC50: 0.0013 µM

SMILES: Cn1cc(-c2cnc(NCc3c(F)ccc4c3CCO4)n3cnnc23)cn1 [Example 147, N-((5-fluoro-2,3-dihydrobenzofuran-4-yl)methyl)-8-(1-methyl-1H-pyrazol-4-yl)-[1,2,4]triazolo[4,3-c]pyrimidin-5-amine]
- IC50: 0.0113 µM
